Measured values taken from US20230265167A1, “COMPOSITIONS HAVING NEUROREGENERATIVE APPLICATIONS” (GRIFOLS WORLDWIDE OPERATIONS LIMITED, priority 2020, published 2023).
“Also recorded” adds a separate entry of the source. Counter-ions that a name gives are not always drawn.

How the values were obtained:
[1] = Iron saturation by ICP-AES; assay type: physicochemical
Excerpt: The skilled person will appreciate that transferrin iron saturation levels can be readily determined without undue burden by quantifying the total iron levels in a sample having a known transferrin concentration. The total iron levels in sample can be measured by any one of a number of methods know by those of skill in the art. Suitable examples include: • Colorimetric assays—Iron is quantitated by measuring the intensity of the violet complex formed in the reaction between ferrozine and Fe^2+ in acetate buffer at 562 nm. Thiourea or other chemicals can be added to complex contaminant metals such Cu^2+, which can also bind with ferrozine and yield falsely elevated iron values. See Ceriotti et al., Improved direct specific determination of serum iron and total iron-binding capacity Clin Chem. 1980, 26(2), 327-31, the contents of which are incorporated herein by reference. • Inductively Coupled Plasma Atomic Emission Spectroscopy (ICP-AES)—is an emission spectroscopy technique that quantifies the mass percentage of metals in a sample. ICP-AES is based on the excitation of metal atoms/ions in the sample using a plasma (an ionized gas consisting of positive ions and free electrons) and analyzing the emission wavelength of the electromagnetic radiation, which is typical of that particular metal. Even though the technique is a standard analytical technique within common general knowledge of the skilled person, further information on ICP-AES can be found in Manley et al., Simultaneous Cu-, Fe-, and Zn-specific detection of metalloproteins contained in rabbit plasma by size-exclusion chromatography-inductively coupled plasma atomic emission spectroscopy. J Biol Inorg Chem. 2009, 14, 61-74, the contents of which are incorporated herein by reference.
The preferred method of determining the iron content of a sample for the purposes of the therapeutic method of the present invention is ICP-AES. The iron saturation of transferrin is then calculated based on the transferrin protein concentration, total iron content of the sample, and the fact that wild type transferrin has two iron-binding sites. Wild type human transferrin (molecular weight 79,750) can bind two iron atoms such that a sample containing 1 g of transferrin would be 100% saturated by 1.4 mg of iron.
Protein purity was determined by SDS-PAGE. Iron saturation levels were determined using ICP-AES in accordance with the procedures outlined in Manley et al., J Biol Inorg Chem (2009) 14:61-74, the contents of which are incorporated herein by reference.

[2] = test system: SH-SY5Y cells; test: Neurite outgrowth (differentiation) in SH-SY5Y cells, Tubulin Tracker imaging; assay type: cell-based, human; details: for neurite outgrowth or differentiation: FIG. 5
Protocol: Transferrin is utilized in cell culture and in-vivo to deliver iron as a nutrient to cells. This is typically accomplished through the actions of holo-transferrin (HoloTf) binding to, and endocytosis by, its cognate receptor CD71, the transferrin receptor 1 (TfR1). Transferrin is typically believed to provide cells with iron as a means to promote and sustain metabolic activity. […] Induction of neuronal differentiation was assessed by morphological parameters of neurite formation (a key element typically used as a marker of neuronal differentiation, neuronal health, and function) according to the procedures of Agholme, 2010. J. of Alzheimer's Disease. Vol. 20:1p 069-108; and Dyberg et al., 2017. PNAS Vol 114 (32), E6603-E6612.
Undifferentiated SH-SY5Y cells were seeded into 96 well clear bottom plates in media containing 0.1% FBS. A serum-free base media was utilized as recommended by the supplier for SH-SY5Y cells (Sigma, Cat #94030304-1VL). Twenty-four hours after seeding cells, a 3× stock solution of ApoTf, final concentrations indicated on the x-axis, in serum free base media was added to the cells. ApoTf was obtained and purified from pooled human plasma and dosed at a final concentration of 0.2 mg/mL.
Cells were allowed to differentiate for 6 days. Neurite growth was assessed by imaging and image analysis. At the time of analysis, a 10× solution of Tubulin Tracker (Molecular Probes, T34075) and Hoechst 33342 (Molecular Probes #H3570) nuclear stain was prepared.
Briefly, Tubulin Tracker dissolved in DMSO was diluted 1:1 with Pluronic F-127 and further diluted into HBSS to generate a 10× solution. Hoechst 33342 was added to the HBSS-Tubulin Tracker solution at 10 μg/mL to generate a 10× nuclear stain. The 10× staining solution (10 μL) was added directly to treated assay wells and incubated at 37° C. for 30 minutes. Following incubation, 110 μL of 0.4% Trypan Blue was added directly to assay wells and imaged on a Molecular Devices Nano imaging instrument. Nine images/well were acquired in the blue (Nuclei) and green (Tubulin) fluorescent channels for each image.
After obtaining images, the MetaExpress Neurite Outgrowth analysis module (Molecular Devices) was used to identify cells, cell bodies, and quantify neurites. The total number of neurite branches were divided by the total number of cells imaged to account for different numbers of cells in each test well. The Outgrowth Fold Change was determined by setting the untreated control cells to a value of 1 with all other treatments shown relative to untreated control.
Undifferentiated SH-SY5Y cells were seeded and treated as described in Example 1. Neurite growth was assessed by imaging and image analysis. At the time of analysis, a 10× solution of Tubulin Tracker (Molecular Probes, T34075) and Hoechst 33342 (Molecular Probes #H3570) nuclear stain was prepared. Briefly, Tubulin Tracker dissolved in DMSO was diluted 1:1 with Pluronic F-127 and further diluted into HBSS to generate a 10× solution. Hoechst 33342 was added to the HBSS-Tubulin Tracker solution at 10 μg/mL to generate at 10× nuclear stain. The 10× staining solution (10 μL) was added directly to treated assay wells and incubated at 37° C. for 30 minutes. Following incubation, 110 μL of 0.4% Trypan Blue was added directly to assay wells and imaged on a Molecular Devices Nano imaging instrument. Nine images/well were acquired in the blue (Nuclei) and green (Tubulin) fluorescent channels for each image. After obtaining images, the MetaExpress Neurite Outgrowth analysis module (Molecular Devices) was used to identify cell bodies and quantify neurites. The total number of neurite branches were divided by the total number of cells imaged to account for different numbers of cells. The Outgrowth Fold Change was determined by setting the untreated control to a value of 1 with all other treatments shown relative to untreated control. ApoTf was obtained and purified from pooled human plasma and dosed at a final concentration of 0.2 mg/mL. […]

[3] = test system: HIF-1α; details: cited from earlier work

ApoTransferrin A: ApoTf preparation, Grifols - prepared in house
Iron Saturation (%) [1]: 0.27%

C[C@@H](N)[C@H]1CC[C@H](C(=O)Nc2ccncc2)CC1.Cl.Cl [Y-27632, trans-4-[(1R)-1-Aminoethyl]-N-4-pyridinylcyclohexanecarboxamide dihydrochloride, reference compound]
neurogenic effect, alone ([2]; FIG. 8, 50 μM): strongly neurogenic

O=C(O)CNC(=O)c1c(O)c2ccccc2n(Cc2ccccc2)c1=O [IOX2, N-[[1,2-Dihydro-4-hydroxy-2-oxo-1-(phenylmethyl)-3-quinolinyl]carbonyl]glycine, reference compound]
concentration inducing up-regulation of HIF-1α ([3]; undifferentiated SH-SY5Y): 1 µM
neurite outgrowth or differentiation [2]: no neurite outgrowth or differentiation was observed
neurite outgrowth or differentiation ([2]; 4 μM): no effect was observable

recombinant ApoTf: recombinant wild-type human transferrin, SEQ ID NO: 1, expressed in 293-6E cells
neurogenesis (neurite outgrowth) of SH-SY5Y ([2]; FIG. 3B, proteins at 0.2 mg/mL): did induce neurogenesis

ApoTransferrin B: ApoTf preparation, Grifols - prepared in house
Iron Saturation (%) [1]: 0.59%

ApoTransferrin C: ApoTf preparation, Grifols - prepared in house
Iron Saturation (%) [1]: 0.24%

CC(=O)N(O)CCCCCNC(=O)CCC(=O)N(O)CCCCCNC(=O)CCC(=O)N(O)CCCCCN [DFO, Deferoxamine mesylate, reference compound]
neurite outgrowth / differentiation versus concentration ([2]; FIG. 3A, DFO versus ApoTf): little neurite formation beyond that concentration

HoloTransferrin: the iron-saturated form of transferrin, purified from pooled human plasma
HIF-1α production ([3]; reported in US2016008437): can induce HIF-1α production
neurogenesis / differentiation of SH-SY5Y ([2]; FIG. 4, proteins at 0.2 mg/mL, listed as HoloTf): unable to induce differentiation; also recorded: lack of neurogenesis
Iron Saturation (%) [1]: 100%
